Values joined by “and” are separate entries in the source; they are usually repeats but may differ in a detail not shown here. Identical values can stand only once.
Experiments:
Type in all cases: cell-based
[1] = system: Daudi cells; experiment: Cell viability assay (CellTiter-Glo), Daudi; settings: Daudi
Summary of the method: (§1)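 Compounds added in serum-free medium for 4 h (RS4:11: 6 h), then FBS brought to 10% and incubation continued to 24 h or 48 h total at 37 °C, 5% CO2. Viability by CellTiter-Glo 2.0 luminescence; IC50 calculated.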

[2] = system: A549 cells (control); experiment: Cell viability assay (CellTiter-Glo), normal A549 (control); settings: for luminescence reading, everage: mean of 6 wells
Method: The cell lines Jurkat (TIB-152), El4 (TIB-39), Daudi (ccl-213), RS4:11 (crl-1873), A549 (ccl-185), HepG2 (hb-8065) and PANC-1 (crl-1469) were purchased from ATCC (American Type Culture Collection), and MGC-803 (C6582) was purchased from Beyotime (https://www.beyotime.com/product/C6582.htm). […] Daudi and RS4:11 cells were cultured in RPMI-1640 medium (HyClone, SH30809.01) and 10% FBS (Gibco, 10099-141), whereas HepG2, MGC-803 and PANC-1 cells were cultured in MDEM (HyClone, SH30243.01). Cells were maintained at 37 °C under a humidified, 5% (v/v) CO2-containing atmosphere.
Cell viability was measured using CellTiter-Glo® 2.0 Reagent (Promega, G9242). […] After different inhibitors were added into serum-free medium and cultured for 4 h (RS4:11 for 6 h), FBS were supplemented to 10% and then incubated totally for 24 h or 48 h. Finally, the IC50 values were calculated based on measurements using a microplate reader (Thermo, Varioskan LUX). Statistical analysis was performed using software GraphPad Prism 7.0.

[3] = system: Jurkat cells; experiment: Cell viability assay (CellTiter-Glo), Jurkat; settings: for inhibition relative to 0 uM control, replicates / raw viability signal, replicates: listed as ABT199
Summary of the method: as §1

[4] = control A549, ABT-199 0.390625 uM
[5] = control A549, ABT-199 0.78125 uM
[6] = control A549, ABT-199 1.5625 uM

CC1(C)CCC(CN2CCN(c3ccc(C(=O)NS(=O)(=O)c4ccc(NCC5CCOCC5)c([N+](=O)[O-])c4)c(Oc4cnc5[nH]ccc5c4)c3)CC2)=C(c2ccc(Cl)cc2)C1 [venetoclax]
raw viability signal, replicates ([1]; 25 uM, listed as ABT199): 106.6 and 104.3 and 439.1 and 228.2 and 183.6 and 51.32
IC50 ([1]; Homo sapiens, 48 h, 48 h treatment, CellTiter-Glo): 9.12 µM
average (raw viability reading) ([2]; A549, ABT199 0.3125 uM): 403300
inhibition rate ([2]; A549, ABT199 0.3125 uM, fraction, replicates): 0.1384 and 0.2199 and 0.2562 and 0.2483 and 0.2515 and 0.3247
raw viability reading ([2]; A549, ABT199 0.3125 uM, replicates): 394600 and 398800 and 397100 and 358300 and 457100 and 413900
average (raw viability reading) ([2]; A549, ABT199 0.625 uM): 437733
inhibition rate ([2]; A549, ABT199 0.625 uM, fraction, replicates): 0.1102 and 0.1614 and 0.1995 and 0.1861 and 0.1882 and 0.2042
raw viability reading ([2]; A549, ABT199 0.625 uM, replicates): 424700 and 431800 and 430700 and 422200 and 472100 and 444900
average (raw viability reading) ([2]; A549, ABT199 1.25 uM): 415750
inhibition rate ([2]; A549, ABT199 1.25 uM, fraction, replicates): 0.1437 and 0.2152 and 0.2434 and 0.2293 and 0.2263 and 0.2404
raw viability reading ([2]; A549, ABT199 1.25 uM, replicates): 401400 and 408900 and 410500 and 403000 and 454300 and 416400
average (raw viability reading) ([2]; A549, ABT199 2.5 uM): 279550
inhibition rate ([2]; A549, ABT199 2.5 uM, fraction, replicates): 0.4238 and 0.4647 and 0.4862 and 0.4847 and 0.4854 and 0.4937
raw viability reading ([2]; A549, ABT199 2.5 uM, replicates): 272600 and 273400 and 273000 and 268600 and 305700 and 284000
average (raw viability reading) ([2]; A549, ABT199 5 uM): 231967
inhibition rate ([2]; A549, ABT199 5 uM, fraction, replicates): 0.5341 and 0.5546 and 0.5723 and 0.5614 and 0.5684 and 0.5859
raw viability reading ([2]; A549, ABT199 5 uM, replicates): 226900 and 232700 and 229000 and 219700 and 247200 and 236300
average (raw viability reading) ([2]; A549, ABT199 10 uM): 181100
inhibition rate ([2]; A549, ABT199 10 uM, fraction, replicates): 0.6325 and 0.6605 and 0.666 and 0.6628 and 0.6649 and 0.6653
raw viability reading ([2]; A549, ABT199 10 uM, replicates): 177200 and 178900 and 177800 and 177600 and 195000 and 180100
average (raw viability reading) ([2]; A549, ABT199 20 uM): 174683
inhibition rate ([2]; A549, ABT199 20 uM, fraction, replicates): 0.6679 and 0.6686 and 0.6762 and 0.6713 and 0.6664 and 0.6741
raw viability reading ([2]; A549, ABT199 20 uM, replicates): 171800 and 174400 and 177000 and 172900 and 176200 and 175800
inhibition at 0.390625 µM ([2]; Homo sapiens, A549, control A549, ABT-199 0.390625 uM, replicate wells, read-out: inhibition rate): 26%
inhibition at 0.78125 µM ([2]; Homo sapiens, A549, control A549, ABT-199 0.78125 uM, replicate wells, read-out: inhibition rate): 33%
inhibition at 1.5625 µM ([2]; Homo sapiens, A549, control A549, ABT-199 1.5625 uM, replicate wells, read-out: inhibition rate): 61%
inhibition at 3.125 µM ([2]; Homo sapiens, A549, control A549, ABT-199 3.125 uM, replicate wells, read-out: inhibition rate): 75%
inhibition at 6.25 µM ([2]; Homo sapiens, A549, control A549, ABT-199 6.25 uM, replicate wells, read-out: inhibition rate): 76%
inhibition at 12.5 µM ([2]; Homo sapiens, A549, control A549, ABT-199 12.5 uM, replicate wells, read-out: inhibition rate): 81%
inhibition at 25 µM ([2]; Homo sapiens, A549, control A549, ABT-199 25 uM, replicate wells, read-out: inhibition rate): 87%
inhibition at 50 µM ([2]; Homo sapiens, A549, control A549, ABT-199 50 uM, replicate wells, read-out: inhibition rate): 93%
inhibition at 100 µM ([2]; Homo sapiens, A549, control A549, ABT-199 100 uM, replicate wells, read-out: inhibition rate): 98%
inhibition at 200 µM ([2]; Homo sapiens, A549, control A549, ABT-199 200 uM, replicate wells, read-out: inhibition rate): 99%
IC50 ([2]; Homo sapiens, A549, 48 h, CellTiter-Glo, n = 6, read-out: IC50 A549 control (original cells)): 1100 ± 200 nM
luminescence reading (raw, replicate wells) [2, 4]: 589100 and 474500 and 578500 and 498700 and 513300 and 511200
luminescence reading, everage [2, 4]: 527550
inhibition rate ([2]; control A549, ABT-199 0.390625 uM, replicate wells): 40% and 27% and 37% and 35% and 36%
luminescence reading (raw, replicate wells) [2, 5]: 528700 and 466700 and 517300 and 470700 and 495500 and 475500
luminescence reading, everage [2, 5]: 492400
inhibition rate ([2]; control A549, ABT-199 0.78125 uM, replicate wells): 41% and 35% and 38% and 40%
luminescence reading (raw, replicate wells) [2, 6]: 312000 and 314300 and 298800 and 314500 and 309000 and 290800
luminescence reading, everage [2, 6]: 306567
inhibition rate ([2]; control A549, ABT-199 1.5625 uM, replicate wells): 60% and 62% and 63%
luminescence reading (raw, replicate wells) ([2]; control A549, ABT-199 3.125 uM): 198800 and 204700 and 191700 and 191900 and 189900 and 188800
luminescence reading, everage ([2]; control A549, ABT-199 3.125 uM): 194300
inhibition rate ([2]; control A549, ABT-199 3.125 uM, replicate wells): 74%
luminescence reading (raw, replicate wells) ([2]; control A549, ABT-199 6.25 uM): 186800 and 193000 and 186700 and 177700 and 179700 and 186500
luminescence reading, everage ([2]; control A549, ABT-199 6.25 uM): 185067
inhibition rate ([2]; control A549, ABT-199 6.25 uM, replicate wells): 78% and 77%
luminescence reading (raw, replicate wells) ([2]; control A549, ABT-199 12.5 uM): 154400 and 153500 and 158000 and 148200 and 149400 and 149600
luminescence reading, everage ([2]; control A549, ABT-199 12.5 uM): 152183
inhibition rate ([2]; control A549, ABT-199 12.5 uM, replicate wells): 80%
luminescence reading (raw, replicate wells) ([2]; control A549, ABT-199 25 uM): 102900 and 103500 and 106000 and 102100 and 105400 and 102800
luminescence reading, everage ([2]; control A549, ABT-199 25 uM): 103783
luminescence reading (raw, replicate wells) ([2]; control A549, ABT-199 50 uM): 55930 and 54730 and 51960 and 49990 and 56070 and 56150
luminescence reading, everage ([2]; control A549, ABT-199 50 uM): 54138
inhibition rate ([2]; control A549, ABT-199 50 uM, replicate wells): 94%
luminescence reading (raw, replicate wells) ([2]; control A549, ABT-199 100 uM): 16550 and 16810 and 16440 and 16110 and 17860 and 16240
luminescence reading, everage ([2]; control A549, ABT-199 100 uM): 16668
luminescence reading (raw, replicate wells) ([2]; control A549, ABT-199 200 uM): 6435 and 6601 and 7137 and 6682 and 6762 and 7490
luminescence reading, everage ([2]; control A549, ABT-199 200 uM): 6851
inhibition relative to 0 uM control, replicates ([3]; 0.09375 uM): 3.52% and 1.46% and 6% and 5% (2×) and 2.56%
raw viability signal, replicates ([3]; 0.09375 uM): 1920000 and 1961000 and 1868000 and 1890000 and 1939000 and 1891000
inhibition relative to 0 uM control, replicates ([3]; 0.1875 uM): 17% and 21% (2×) and 20% (2×)
raw viability signal, replicates ([3]; 0.1875 uM): 1613000 and 1643000 and 1579000 and 1582000 and 1598000 and 1590000
inhibition relative to 0 uM control, replicates ([3]; 0.375 uM): 36% and 31% and 32% and 27% and 22% and 17%
raw viability signal, replicates ([3]; 0.375 uM): 1276000 and 1374000 and 1347000 and 1456000 and 1547000 and 1657000
inhibition relative to 0 uM control, replicates ([3]; 0.75 uM): 38% and 41% and 36% and 33% and 32%
raw viability signal, replicates ([3]; 0.75 uM): 1124000 and 1225000 and 1165000 and 1278000 and 1326000 and 1356000
inhibition relative to 0 uM control, replicates ([3]; 1.5 uM): 52% and 54% (2×) and 53% and 47%
raw viability signal, replicates ([3]; 1.5 uM): 903200 and 948100 and 908900 and 906300 and 926500 and 1061000
inhibition relative to 0 uM control, replicates ([3]; 3 uM): 86% (3×) and 87% (2×)
raw viability signal, replicates ([3]; 3 uM): 248500 and 275900 and 263600 and 270200 and 263000 and 279700
inhibition at 0.1875 µM ([3]; Homo sapiens, 0.1875 uM, read-out: inhibition relative to 0 uM control, replicates): 19%
inhibition at 0.75 µM ([3]; Homo sapiens, 0.75 uM, read-out: inhibition relative to 0 uM control, replicates): 44%
inhibition at 1.5 µM ([3]; Homo sapiens, 1.5 uM, read-out: inhibition relative to 0 uM control, replicates): 55%
inhibition at 3 µM ([3]; Homo sapiens, 3 uM, read-out: inhibition relative to 0 uM control, replicates): 88%
IC50 ([3]; Homo sapiens, 48 h treatment, CellTiter-Glo): 1200 ± 200 nM
